Test results from ChEMBL document CHEMBL5537113, “Discovery of 1,2-diaryl-3-oxopyrazolidin-4-carboxamides as a new class of MurA enzyme inhibitors and characterization of their antibacterial activity” (Eur J Med Chem, 2023).
Active and inactive are the calls of the source. No cut-off for these calls is given here.

Key:
[1] = target: UDP-N-acetylglucosamine 1-carboxyvinyltransferase (Escherichia coli K-12) (UniProt P0A749); experiment: Inhibition of Escherichia coli K12 His-tagged MurA expressed in Escherichia coli BL21 cells at 50 uM using UNAG as substrate pre incubated for 15 mins followed by substrate addition and measured after 15 mins by microplate reader analysis relative to control; conditions: time 30.0 min
Sequence of UDP-N-acetylglucosamine 1-carboxyvinyltransferase (Escherichia coli K-12) (P0A749 whole entry): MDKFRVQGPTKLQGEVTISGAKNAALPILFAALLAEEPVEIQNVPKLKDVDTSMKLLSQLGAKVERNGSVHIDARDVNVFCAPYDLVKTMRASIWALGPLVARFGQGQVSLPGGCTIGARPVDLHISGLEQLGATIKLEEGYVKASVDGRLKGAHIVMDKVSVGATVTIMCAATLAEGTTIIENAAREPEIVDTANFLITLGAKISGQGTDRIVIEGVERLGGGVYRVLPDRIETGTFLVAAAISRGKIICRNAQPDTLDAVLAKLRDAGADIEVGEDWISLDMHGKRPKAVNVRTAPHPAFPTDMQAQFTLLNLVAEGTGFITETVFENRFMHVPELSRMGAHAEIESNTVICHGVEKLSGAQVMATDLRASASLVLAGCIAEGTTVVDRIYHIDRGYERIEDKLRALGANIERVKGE

Escherichia coli = experiment: Antibacterial activity against Escherichia coli harboring tolC deletion mutant assessed as reduction in microbial growth incubated for 16 hrs by serial dilution method; format: functional
Staphylococcus aureus = experiment: Antibacterial activity against Staphylococcus aureus Newman D2C NCTC 10833 assessed as reduction in microbial growth incubated for 16 hrs by serial dilution method; format: functional
[2] = Drug uptake in Escherichia coli harboring tolC deletion mutant assessed per 1.6x10^9 cells at 10 uM incubated for 30 mins by LC analysis; format: ADME; conditions: 0.5 h
[3] = Drug uptake in Escherichia coli harboring tolC deletion mutant at 10 uM incubated for 30 mins by LC analysis; format: ADME; conditions: 0.5 h
[4] = target: UDP-N-acetylglucosamine 1-carboxyvinyltransferase (Escherichia coli K-12, UniProt P0A749); experiment: Inhibition of Escherichia coli K12 His-tagged MurA expressed in Escherichia coli BL21 cells using UNAG as substrate pre incubated for 15 mins followed by substrate addition and measured after 15 mins by microplate reader analysis
Sequence of UDP-N-acetylglucosamine 1-carboxyvinyltransferase (P0A749 whole entry): as above

Which inhibition [1] does the source give for `O=C(NCc1ccccn1)C1CN(c2cccc(Cl)c2)N(c2cccc(Cl)c2)C1=O` (centres undefined) here?
Its inhibition is “inactive”.

And the MIC (Escherichia coli)?
The MIC was greater than 40 µM.

And the MIC (Staphylococcus aureus)?
The MIC was greater than 40 µM.

With `O=C1SCCC1NC(=O)C1CN(c2cccc(Cl)c2)N(c2cccc(Cl)c2)C1=O` (centres undefined) as the compound, how does the inhibition [1] read?
The inhibition was 35%.

And the MIC (Escherichia coli)?
The MIC was 17 µM.

What about the MIC (Staphylococcus aureus) of the same compound?
The MIC was 11 µM.

Which results are given for `O=C(Nc1nc2ccccc2s1)C1CN(c2cccc(Cl)c2)N(c2cccc(Cl)c2)C1=O` (centres undefined)?
inhibition [1]: 65.2%; MIC (Escherichia coli): > 40 µM; Drug uptake [2]: 19 µM; MIC (Staphylococcus aureus): > 40 µM; Drug uptake [3]: 573 nM; IC50 [4]: 18 µM

Which results are given for `N#Cc1ccc(NC(=O)C2CN(c3cccc(Cl)c3)N(c3cccc(Cl)c3)C2=O)cn1` (centres undefined)?
inhibition [1]: 32.2%; MIC (Escherichia coli): > 40 µM; MIC (Staphylococcus aureus): > 40 µM

Which inhibition [1] does the source give for `O=C(Nc1cncc(Cl)c1)C1CN(c2cccc(Cl)c2)N(c2cccc(Cl)c2)C1=O` (centres undefined) here?
The inhibition was 18.2%.

What about the MIC (Escherichia coli) of the same compound?
The MIC was greater than 40 µM.

And the MIC (Staphylococcus aureus)?
Its MIC is greater than 40 µM.

Which results are given for `O=C(Nc1ccccn1)C1CN(c2cccc(Cl)c2)N(c2cccc(Cl)c2)C1=O` (centres undefined)?
inhibition [1]: 30.5%; MIC (Escherichia coli): > 40 µM; MIC (Staphylococcus aureus): > 40 µM

What does the source list for `O=C(Nc1ccsc1)C1CN(c2cccc(Cl)c2)N(c2cccc(Cl)c2)C1=O` (centres undefined)?
inhibition [1]: 24.7%; MIC (Escherichia coli): > 40 µM; MIC (Staphylococcus aureus): > 40 µM

For `O=C(Nc1cccc(-c2cn[nH]c2)c1)C1CN(c2cccc(Cl)c2)N(c2cccc(Cl)c2)C1=O` (centres undefined), which inhibition [1] is on record?
Its inhibition is 60.4%.

And the MIC (Escherichia coli)?
Its MIC is greater than 40 µM.

What about the MIC (Staphylococcus aureus) of the same compound?
Its MIC is greater than 40 µM.

What about the IC50 [4] of the same compound?
The IC50 was 31 µM.

Which results are given for `O=C(Nc1ccc2[nH]cnc2c1)C1CN(c2cccc(Cl)c2)N(c2cccc(Cl)c2)C1=O` (centres undefined)?
inhibition [1]: 74.2%; MIC (Escherichia coli): 18 µM; MIC (Staphylococcus aureus): > 40 µM; IC50 [4]: 33.5 µM

For `O=C(NCc1ccncc1)C1CN(c2cccc(Cl)c2)N(c2cccc(Cl)c2)C1=O` (centres undefined), which inhibition [1] is on record?
Its inhibition is “inactive”.

What about the MIC (Escherichia coli) of the same compound?
The MIC was greater than 40 µM.

And the MIC (Staphylococcus aureus)?
Its MIC is greater than 40 µM.

With `O=C(Nc1ncc(Cl)s1)C1CN(c2cccc(Cl)c2)N(c2cccc(Cl)c2)C1=O` (centres undefined) as the compound, how does the inhibition [1] read?
Its inhibition is 67.7%.

And the MIC (Escherichia coli)?
Its MIC is greater than 40 µM.

And the MIC (Staphylococcus aureus)?
Its MIC is greater than 40 µM.

And the IC50 [4]?
The IC50 was 24 µM.

Which inhibition [1] does the source give for `O=C(Nc1nccs1)C1CN(c2cccc(Cl)c2)N(c2cccc(Cl)c2)C1=O` (centres undefined) here?
The inhibition was 17.8%.

What about the MIC (Escherichia coli) of the same compound?
The MIC was greater than 40 µM.

And the MIC (Staphylococcus aureus)?
Its MIC is greater than 40 µM.

Which inhibition [1] does the source give for `O=C(NCc1cccnc1)C1CN(c2cccc(Cl)c2)N(c2cccc(Cl)c2)C1=O` (centres undefined) here?
The inhibition was 11.8%.

What about the MIC (Escherichia coli) of the same compound?
The MIC was greater than 40 µM.

And the MIC (Staphylococcus aureus)?
Its MIC is greater than 40 µM.

For `O=C(Nc1nc(C(F)(F)F)cs1)C1CN(c2cccc(Cl)c2)N(c2cccc(Cl)c2)C1=O` (centres undefined), which inhibition [1] is on record?
Its inhibition is 59.2%.

And the MIC (Escherichia coli)?
Its MIC is greater than 40 µM.

And the MIC (Staphylococcus aureus)?
Its MIC is 40 µM.

What about the IC50 [4] of the same compound?
The IC50 was 38.6 µM.
